From US4058520A, “Aminoalkylthiopyridazine compounds” (The Dow Chemical Company, priority 1976, dated 1977)
Like-named read-outs stand apart in the source and are kept apart here.

How the values were obtained:
[1] = tested on: ADP induced aggregation of blood platelets (rat platelet rich plasma); experiment: inhibition of ADP induced platelet aggregation in vitro (rat platelet rich plasma, change in optical density; Born); format: cell-based; conditions: for IC50: 10 min, read-out: IC50 ADP (concentration at which ADP induced platelet aggregation is inhibited by 50%)
Procedure: Platelet aggregation was initiated in vitro by 0.125 to 0.25 mg/ml of ADP. Rat blood was collected into 3.0% trisodium citrate solution (1:10) by cardiac puncture under methoxyfurane anesthesia. The blood was centrifuged at 120 g for 10 minutes at room temperature and the supernatant platelet rich plasma was removed and diluted with lactated Ringer's solution containing the pyridazine aggregation inhibiting agent (1.0:1.5). Samples of 1.0 ml were pipetted into plastic test tubes and incubated for 10 minutes. Plastic equipment was used for all procedures. The concentration of the pyridazine compound in micromoles inhibiting ADP aggregation by 50% (IC50) was determined using changes in optical density as an indicium of platelet aggregation.
*Concentration in micromoles at which ADP induced platelet aggregation is […]

apple scab = experiment: effectiveness against apple scab; format: in vivo; conditions: 400 parts per million
rootknot nematode = experiment: killing and control of rootknot nematode; format: in vivo; conditions: 2.4 pounds per 100 cu. ft. of soil
tobacco black root rot = experiment: fungicide, killing and control of tobacco black root rot; format: in vivo; conditions: 25 parts per million
[2] = tested on: platelet aggregation / emboli formed in response to ADP; experiment: protection of mice from ADP challenge (inclined screen); format: in vivo; conditions: of ten mice; 60 mgs per kilogram orally; ADP via tail vein one hour after
Procedure: Emboli formed in the vascular system of mice in response to the administration of ADP cause a stroke-like response that prevents mice from staying on an inclined screen. To illustrate the platelet aggregation inhibition effect of the aminoalkylthiopyridazines, ten mice were dosed orally with 60 mgs per kilogram of body weight of the compound 6-chloro-3-(2-diisopropylamino)ethylthio)pyridazine. One hour after compound administration, the mice were challenged with ADP (0.05 M mole/kg) by injection via the tail vein and placed on an inclined screen. The unprotected control mice were unable to maintain their position on the screen.

[3] = rat platelet rich plasma, 0.125 to 0.25 mg/ml of ADP, incubated 10 minutes

Compound	IC50 [1, 3] [µM]	also measured
c1cc(SCCN2CCOCC2)nnc1SCCN1CCOCC1 [3,6-Bis(2-(4-morpholinyl)ethylthio)pyridazine]	13800	effective against apple scab (apple scab): 90%
Clc1ccc(SCCN2CCCCCC2)nn1 [3-Chloro-6-(2-(hexamethyleneimino)ethylthio)pyridazine]	2430	–
Clc1ccc(SCCN2CCCCC2)nn1 [3-Chloro-6-(2-(1-piperidinyl)ethylthio)pyridazine]	3300	–
Clc1ccc(SCCN2CCOCC2)nn1 [3-Chloro-6-(2-(4-morpholinyl)ethylthio)pyridazine]	–	effective in the killing and control of rootknot nematode (rootknot nematode): 90%; IC50 ([1]; Rattus norvegicus, Platelet): 2600 µM
CCN(CC)CCCSc1ccc(Cl)nn1 [3-Chloro-6-(3-(diethylamino)propylthio)pyridazine]	3710	effective as a fungicide in the killing and control of tobacco black root rot (tobacco black root rot): 100%
CC(C)N(CCSc1ccc(Cl)nn1)C(C)C [6-Chloro-3-(2-(diisopropylamino)ethylthio)pyridazine]	140	platelet aggregation inhibiting activity (in words) ([1]; Table I data): highly effective; mice protected from the ADP challenge and remaining on the screen [2]: 10 mice
CN(C)CCCSc1ccc(Cl)nn1 [3-Chloro-6-(3-dimethylamino)propylthio)pyridazinium methane sulfonate]	2400	–
Clc1ccc(SCCCN2CCOCC2)nn1 [3-Chloro-6-(3-(4-morpholinyl)propylthio)pyridazine]	10500	–
